Results taken from PubChem BioAssay (NCI).
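Cultured in 96-well plates, cells were exposed to test compound for 48 hours across five concentrations. GI50 marks 50% less growth. Definition used: TGI = concentration required for complete inhibition of growth.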

Legend:
Test in all cases: NCI tumour cell line growth inhibition, 48 h
HOP-62 NSCLC = system: HOP-62 NSCLC
SN12C renal = system: SN12C renal
DMS 273 small cell lung = system: DMS 273 small cell lung
SK-OV-3 ovarian = system: SK-OV-3 ovarian
CAKI-1 renal = system: CAKI-1 renal
SR leukemia = system: SR leukemia
HL-60(TB) leukemia = system: HL-60(TB) leukemia
SNB-75 CNS = system: SNB-75 CNS
SF-539 CNS = system: SF-539 CNS
LOX IMVI melanoma = system: LOX IMVI melanoma
TK-10 renal = system: TK-10 renal
SNB-78 CNS = system: SNB-78 CNS

Row | SMILES | TGI (HOP-62 NSCLC) [µM] | TGI (SN12C renal) [µM] | TGI (DMS 273 small cell lung) [µM] | GI50 (SK-OV-3 ovarian) [µM] | GI50 (CAKI-1 renal) [µM] | TGI (CAKI-1 renal) [µM] | TGI (SR leukemia) [µM] | GI50 (HL-60(TB) leukemia) [pM] | TGI (HL-60(TB) leukemia) [µM] | TGI (SNB-75 CNS) [µM] | TGI (SK-OV-3 ovarian) [µM] | TGI (SF-539 CNS) [µM] | TGI (LOX IMVI melanoma) [µM] | TGI (TK-10 renal) [µM] | GI50 (HOP-62 NSCLC) [µM] | GI50 (SNB-75 CNS) [µM] | GI50 (SF-539 CNS) [µM] | GI50 (TK-10 renal) [µM] | TGI (SNB-78 CNS) [µM]
1 | COc1cc2c(cc1O)CCN[C@@]21CS[C@H]2c3c(OC(C)=O)c(C)c4c(c3C(COC1=O)N1C2C2c3c(cc(C)c(OC)c3O)CC([C@@H]1O)N2C)OCO4 (some centres not stated) | < 1e-06 | 4.41e-06 | < 1e-06 | 0.00246 | 0.00269 | 0.0622 | 0.00131 | < 1 | < 1e-06 | – | – | – | – | – | – | – | – | – | –
2 | N=C(N)SC1c2ccccc2-c2cc([N+](=O)[O-])ccc21 (configuration not stated) | 21.2 | 26.6 | – | – | – | 19.3 | 21.9 | – | 11.9 | 5.7 | 18.9 | 13.7 | 22.1 | 21.3 | – | – | – | – | –
3 | C/C=C1/CN2CC[C@@H]3c4ccccc4N4[C@H](C(=O)OC)[C@H]1C[C@H]2[C@]34/C=C/C1=COC[C@@H]2[C@H]1C[C@H]1c3c(c4ccccc4n3C)C[C@@H]2N1C | 7.29 | 9.17 | – | – | – | 7.89 | 19.3 | – | – | – | 8.06 | 7.61 | 8.74 | 7.5 | – | – | – | – | –
4 | O=S(=O)(O)c1cc(O)c2c(O)c(N=Nc3ccc(/C=C/c4ccc(N=Nc5c(S(=O)(=O)O)cc6cc(S(=O)(=O)O)cc(O)c6c5O)cc4S(=O)(=O)O)c(S(=O)(=O)O)c3)c(S(=O)(=O)O)cc2c1 | > 100 | > 100 | > 100 | – | – | > 100 | > 100 | – | > 100 | > 100 | > 100 | > 100 | > 100 | > 100 | – | – | – | – | –
5 | CC(=O)O[C@H]1CC[C@]2(C)[C@H]3C(=O)C=C4[C@@H]5C[C@](C)(C(=O)N6CCCNCC6)CC[C@]5(C)CC[C@@]4(C)[C@]3(C)CC[C@H]2C1(C)C | 4.14 | – | – | 1.87 | 1.43 | 2.79 | – | – | – | 2.64 | 3.48 | 3 | – | 3.45 | 1.78 | 1.34 | 1.62 | 1.77 | –
6 | Nc1nc(SCCC/C=C/B(O)O)nc2c1ncn2C1OC(CO)C(O)C1O (configuration not stated) | > 243 | > 243 | > 243 | – | – | – | > 243 | – | > 243 | > 243 | > 243 | > 243 | > 243 | > 243 | – | – | – | – | > 243
7 | O=C(N/N=C/c1cc(Br)cc(Br)c1[O-])c1ccccc1O.O=C(N/N=C/c1cc(Br)cc(Br)c1[O-])c1ccccc1O.[Cl-].[Fe+3] | 5.48 | – | – | – | – | 18.2 | 5.68 | – | 6.54 | – | 7.22 | 5.35 | 15.5 | 20 | – | – | – | – | –
8 | CC1(C)[C@@H]2C[C@H]1C(Cc1ccccc1C[C@H]1c3cc(-c4ccccn4)ncc3[C@H]3C[C@@H]1C3(C)C)c1cc(-c3ccccn3)ncc12 (some centres not stated) | 0.328 | > 100 | – | – | – | > 40.8 | 1.28 | – | 0.65 | > 100 | > 100 | 8.42 | 1.48 | > 78.7 | – | – | – | – | –
9 | C=C(/C=C/C=C(/CCC=C(C)C)COC(C)=O)[C@@H]1CC[C@]2([C@H](CCCO)/C(=C(/C)C=O)CC[C@]2(C)O)[C@@H]1O | – | 29.9 | 21.1 | – | – | 17.5 | – | – | 11.1 | – | 54.5 | 28.5 | 27.4 | 31.3 | – | – | – | – | –
10 | CN(C)CCNc1ccc2nnn3c4ccc(Cl)cc4c(=O)c1c23 | 21.4 | 21.8 | – | – | – | 11 | 10.1 | – | 19.9 | 9.78 | 35.1 | 16.2 | 9.66 | 22.1 | – | – | – | – | 34.9
11 | CCCNCC(O)/C=C/[Si](C)(C)C (configuration not stated) (tested in a mixture with another compound) | – | > 100 | – | – | – | – | > 100 | – | > 100 | > 100 | > 100 | > 100 | > 100 | > 100 | – | – | – | – | > 100
12 | NC(Cc1ccc2oc3cc(=O)c4ccccc4c-3nc2c1)C(=O)O (configuration not stated) | 76.3 | 39.5 | > 60.1 | – | – | > 97.7 | 67.6 | – | 76.2 | 29.7 | > 100 | 54.6 | 44.1 | > 97.2 | – | – | – | – | > 100
13 | COc1cc2c(cc1OC)C(C1(O)CCCCC1)NCC2 (configuration not stated) | > 100 | > 100 | > 100 | – | – | – | > 100 | – | > 100 | > 100 | > 100 | – | > 100 | > 100 | – | – | – | – | –
14 | Cc1c(Cl)c(S(N)(=O)=O)cc(S(N)(=O)=O)c1NC(=O)c1ccc(Cl)cc1 | > 100 | > 100 | – | – | – | > 100 | – | – | > 100 | > 100 | > 100 | – | > 100 | > 100 | – | – | – | – | –
15 | O=[N+]([O-])/C=C/c1cccc(F)c1 | 32.4 | 38.9 | – | – | – | 29.9 | – | – | – | 28.1 | 28.2 | 20.8 | > 100 | 14.3 | – | – | – | – | –
16 | C#CCCCCC#CC1CCCC1C1=CC(=O)c2ccccc21 (configuration not stated) | 20.3 | 19.4 | 11.9 | – | – | – | > 100 | – | 3.93 | 17.7 | 28.7 | 21.1 | 13.9 | 34.5 | – | – | – | – | –
17 | Oc1ccc2ccccc2c1N=Nc1ccc(N=Nc2ccccc2)cc1 | > 100 | > 100 | – | – | – | > 100 | 88.2 | – | 12 | > 100 | > 100 | – | > 100 | > 100 | – | – | – | – | –
18 | CCCCCCc1ccc(O)cc1O | > 100 | > 100 | > 100 | – | – | – | – | – | > 100 | > 100 | > 100 | > 100 | > 100 | – | – | – | – | – | > 100
19 | Nc1nc(Cl)cc(NCCCCO)n1 | > 10 | > 100 | > 100 | – | – | – | > 100 | – | > 100 | > 100 | > 100 | > 100 | > 100 | > 100 | – | – | – | – | > 100
20 | CCOC(=O)C1=C(C)N2CCCOC2(C)C(C(=O)OC)C1c1cccc([N+](=O)[O-])c1 (configuration not stated) | > 100 | – | – | – | – | > 100 | > 100 | – | > 100 | 75.8 | – | > 100 | – | > 100 | – | – | – | – | –
21 | CN[C@@H]1[C@H](O)[C@H](NC)[C@H]2O[C@@]3(O)C(=O)C[C@@H](C)O[C@H]3O[C@@H]2[C@H]1O | > 100 | > 100 | – | – | – | > 100 | > 100 | – | > 100 | > 100 | > 100 | > 100 | > 100 | – | – | – | – | – | –
22 | Cc1ccccc1N=Nc1ccc(N=Nc2c(O)ccc3cc(S(=O)(=O)O)cc(S(=O)(=O)O)c23)c(C)c1 | > 100 | – | – | – | – | > 100 | > 100 | – | > 100 | > 100 | > 100 | > 100 | – | > 100 | – | – | – | – | –
